Laboratory results reported in article PMC8893300, “A Dynamic Mass Redistribution Assay for the Human Sweet Taste Receptor Uncovers G-Protein Dependent Biased Ligands” (Frontiers in Pharmacology, 2022).
Like-named read-outs stand apart in the source and are kept apart here. Marks after values point to notes of the source that are not given here.

Key:
[1] = tested on: EGF response in R2/R3 U2OS cells; assay: Pathway blockers on EGF-mediated DMR response in R2/R3 U2OS cells; settings: 100–300 ng/ml EGF; for % inhibition of the EGF DMR response: PTx overnight, wortmannin 200 nM, U0126 2 μM, GF109203x 5 μM, mean ± sd; for effect on the EGF DMR response, in words: latrunculin A 1 μM, GW583340 10 μM, tyrphostin 1 μM, GSK269962 2 μM
Description: (§2) Blocker stocks (250x) were prepared in DMSO or water and stored as aliquots at −20°C. Just before use, they were diluted to 2X their final concentration in assay buffer (D-PBS) at a final concentration of 0.4% DMSO. Concentrated stock solutions of the agonists somatostatin, carbachol, EGF, and sucralose were made in water or D-PBS while S1P was made up in 50% EtOH. Just before use, the agonists were diluted to 5X their final concentration in D-PBS at a final concentration of 0.4% DMSO. Final agonist concentrations were 10 μM somatostatin, 100 μM carbachol, 100–300 ng/ml EGF, 2 mM sucralose and 1 μM S1P. R2/R3 U2OS cells were plated as described above. The following day cells were washed on the Epic® with D-PBS/0.4% DMSO leaving a residual volume of 10 μl. 10 μl of D-PBS/0.4% DMSO was added to each well by hand followed by 20 μl of 2X pathway blocker. Cell plates were equilibrated on the Epic® for 90 min. After recording the baseline activity for 5 min, 10 μl of 5X agonist was added using the LHA and the DMR responses were monitored for an additional 40 min.
(§3) Cells were equilibrated at room temperature for 90 min in the Epic® reader with the indicated concentrations of pathway blockers or latrunculin A. In the case of PTx, cells were incubated over night at 37°C and on the day of the experiment PTx was replaced with buffer and cells were equilibrated in the Epic® reader as described above. A 5x-concentrated stock of agonist was then added onto the cells and DMR responses were recorded as described in Materials and Methods. […] Two to eight independent experiments were conducted with each blocker (number of independent experiments are indicated on the bar graph).

[2] = tested on: carbachol response in R2/R3 U2OS cells; assay: Pathway blockers on carbachol-mediated DMR response in R2/R3 U2OS cells; settings: for effect on the carbachol DMR response, in words: latrunculin A 1 μM, wortmannin 200 nM, U0126 2 μM, GSK269962 2 μM
Description: as §2, §3

[3] = tested on: sucralose response (sweet taste receptor) in R2/R3 U2OS cells; assay: Pathway blockers on sucralose-mediated DMR response in R2/R3 U2OS cells; settings: for effect on the sucralose DMR response, in words: latrunculin A 1 μM, PTx overnight, wortmannin 200 nM, U0126 2 μM
Description: as §2, §3

[4] = tested on: somatostatin response in R2/R3 U2OS cells; assay: Pathway blockers on somatostatin-mediated DMR response in R2/R3 U2OS cells; settings: for effect on the somatostatin DMR response, in words: latrunculin A 1 μM, wortmannin 200 nM, U0126 2 μM, GSK269962 2 μM
Description: as §2, §3

[5] = tested on: S1P response in R2/R3 U2OS cells; assay: Pathway blockers on S1P-mediated DMR response in R2/R3 U2OS cells; settings: for % inhibition of the S1P DMR response: PTx overnight, U0126 2 μM, GF109203x 5 μM, GW583340 10 μM, tyrphostin 1 μM, GSK269962 2 μM, mean ± sd or average of two experiments
Description: as §2, §3

[6] = target: T1, human sweet taste receptor (hT1R2/hT1R3) coupled to Gα15 (Homo sapiens, UniProt Q7RTX0+Q8TE23); assay: FLIPR calcium mobilization assay, R2/R3 U2OS cells transduced with Gα15 baculovirus; type: cell-based; settings: for ΔlogR FLIPR Mean: FLIPR-Gα15, operational model, logR minus sucralose logR; for Activity in FLIPR assay Emax: Gα15, top asymptote of dose-response normalized to 1 mM sucralose; for EC50: R2/R3 U2OS cells expressing Gα15
T1 construct: expressed in transfected cells
T1 sequence (Q8TE23 20-839): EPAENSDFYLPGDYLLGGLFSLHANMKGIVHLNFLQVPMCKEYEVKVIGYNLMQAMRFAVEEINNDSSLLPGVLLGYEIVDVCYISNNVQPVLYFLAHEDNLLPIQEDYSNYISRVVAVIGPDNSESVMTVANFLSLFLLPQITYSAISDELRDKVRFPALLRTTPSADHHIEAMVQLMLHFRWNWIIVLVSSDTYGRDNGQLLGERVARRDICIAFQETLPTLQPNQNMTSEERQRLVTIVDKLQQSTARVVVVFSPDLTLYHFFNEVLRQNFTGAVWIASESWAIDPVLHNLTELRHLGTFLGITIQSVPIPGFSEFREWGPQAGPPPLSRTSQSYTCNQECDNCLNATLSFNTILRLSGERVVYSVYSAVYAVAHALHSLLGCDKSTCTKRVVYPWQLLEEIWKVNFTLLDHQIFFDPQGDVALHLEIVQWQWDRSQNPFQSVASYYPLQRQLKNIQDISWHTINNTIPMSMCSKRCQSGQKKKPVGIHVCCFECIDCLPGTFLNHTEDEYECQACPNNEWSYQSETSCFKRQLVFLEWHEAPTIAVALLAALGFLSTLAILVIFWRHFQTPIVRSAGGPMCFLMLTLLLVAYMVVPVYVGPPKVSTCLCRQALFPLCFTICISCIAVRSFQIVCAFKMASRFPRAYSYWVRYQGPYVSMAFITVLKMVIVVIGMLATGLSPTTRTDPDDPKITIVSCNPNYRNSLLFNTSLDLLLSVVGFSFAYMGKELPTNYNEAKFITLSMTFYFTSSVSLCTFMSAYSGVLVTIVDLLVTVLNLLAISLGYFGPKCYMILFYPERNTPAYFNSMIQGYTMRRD
T1 sequence (Q7RTX0 21-852): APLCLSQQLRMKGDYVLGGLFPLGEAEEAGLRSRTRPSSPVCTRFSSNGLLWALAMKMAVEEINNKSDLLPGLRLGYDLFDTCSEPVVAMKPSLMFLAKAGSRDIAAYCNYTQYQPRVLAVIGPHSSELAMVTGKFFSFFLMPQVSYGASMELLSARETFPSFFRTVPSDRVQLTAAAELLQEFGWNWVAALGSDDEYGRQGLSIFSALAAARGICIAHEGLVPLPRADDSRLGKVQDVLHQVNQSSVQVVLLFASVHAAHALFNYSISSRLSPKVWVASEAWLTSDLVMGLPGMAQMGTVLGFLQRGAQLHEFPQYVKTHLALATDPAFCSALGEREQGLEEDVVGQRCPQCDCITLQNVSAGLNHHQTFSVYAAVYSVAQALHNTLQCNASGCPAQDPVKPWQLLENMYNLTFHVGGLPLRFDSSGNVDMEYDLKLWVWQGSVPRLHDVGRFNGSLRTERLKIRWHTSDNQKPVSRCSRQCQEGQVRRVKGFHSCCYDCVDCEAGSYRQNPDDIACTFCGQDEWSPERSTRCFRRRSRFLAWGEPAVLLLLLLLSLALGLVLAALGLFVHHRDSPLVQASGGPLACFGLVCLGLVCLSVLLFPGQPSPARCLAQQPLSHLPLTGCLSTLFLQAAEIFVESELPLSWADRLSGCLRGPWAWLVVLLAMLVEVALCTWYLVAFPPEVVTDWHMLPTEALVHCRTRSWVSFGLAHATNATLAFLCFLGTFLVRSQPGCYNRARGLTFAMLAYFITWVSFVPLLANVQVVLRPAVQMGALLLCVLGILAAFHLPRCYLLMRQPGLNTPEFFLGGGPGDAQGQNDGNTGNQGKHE
Description: The Gα15 coding sequence was inserted in the HindIII-NotI sites and recombinant virus was generated using the Bac-to-Bac system (Life Technologies). Virus was further amplified by propagation in Sf9 cells grown in suspension using Sf900-II media. Virus titers were determined by plaque assay on Sf9 cells.
Cells were gently mixed with the virus at a multiplicity of infection (MOI) of 5. Using a multidrop, 70 μl per well of the cell and virus mixture was dispensed in a 384-well clear bottom plate (Fisher). After 24 h of incubation in a humidified 37°C tissue culture incubator, trichostatin A was added to a final concentration of 0.3 μM and the cells were incubated for another 18–24 h at 34°C. On the day of the experiment, cells were loaded with 4 μM of the calcium indicator Fluo-4 AM (Invitrogen) in D-PBS for 1 h at room temperature. After washing the cells with D-PBS using a cell washer (BioTek) and a 30-minute rest time, the cell plate and the compound plate were transferred into the FLIPR-Tetra (Molecular Devices). […] Loading and the FLIPR assay were run as described above. When indicated, data for agonist dose-responses were normalized to data obtained with a maximum concentration of sucralose (1 mM) and then fitted and plotted using GraphPad Prism (San Diego, CA) and non-linear regression analysis.
(§1) This value, that we termed pEC50Ratio (sucralose) or pEC50R (sucralose), was calculated with EC50 values obtained in the two assay systems. This transformation also allowed determination of an average and a standard error for the pEC50R (sucralose). The two sets of data (DMR and FLIPR data) were then analyzed with an un-paired t-test (α = 0.05). To calculate relative efficacy bias between the two assays, we captured the top asymptote value from each activity-normalized dose-response curve, as provided by the curve fit, calculated an average and a standard deviation (sd) for each agonist and then analyzed the data pairs with an un-paired t-test (α = 0.05). […] The following steps were followed: 1) Using the PRISM software, we re-analyzed each ligand’s dose-response data obtained in each assay with non-linear regression and the users-defined equation “New Operational Model with TauKa ratios” and retrieved logR values from the fits. 2) Subtracted each ligand’s logR value with that of our standard, the sucralose logR value, obtained from the same data set (each ligand dose-response assay data used in this analysis was accompanied with a sucralose dose-response ran on the same day), producing the ΔlogR value for leach ligand in each assay. 3) Calculated the mean and SEM from ΔlogR replicates (from three to nine independent dose-response analysis, in the two different assays). 4) Calculated ΔΔlogR values by subtracting the averaged ligands’ ΔlogR FLIPR values with the averaged ligands’ ΔlogR DMR values.

[7] = target: T2, human sweet taste receptor (hT1R2/hT1R3) (Homo sapiens, UniProt Q7RTX0+Q8TE23); assay: DMR assay (Epic reader) on R2/R3 U2OS cells, endogenous G proteins; type: cell-based; settings: for EC50: R2/R3 U2OS cells, peak DMR response; for ΔlogR DMR Mean: Table 2, operational model, logR minus sucralose logR; for Activity in DMR assay Emax: top asymptote of dose-response normalized to 1 mM sucralose
T2 construct: expressed in transfected cells
T2 sequence (Q8TE23 20-839): T1 sequence (Q8TE23 20-839)
T2 sequence (Q7RTX0 21-852): T1 sequence (Q7RTX0 21-852)
Description: The plates were incubated in the tissue culture hood for 20 min to allow cells to settle evenly at the bottom of the microplate and further cultured at 37°C in an atmosphere of 5% CO2 for 18–24 h. The next day, the cells were subjected to functional analysis using DMR. […] When indicated, data for agonist dose-responses were normalized to data obtained with a maximum concentration of sucralose (1 mM) and then fitted and plotted using GraphPad Prism (San Diego, CA) and non-linear regression analysis.
as §1

[8] = read-out: Activity in FLIPR assay EC50
[9] = read-out: Activity in FLIPR assay pEC50 (converted)
[10] = read-out: Activity in DMR assay EC50
[11] = read-out: Activity in DMR assay pEC50 (converted)

SMILES: CN(C)CCCn1cc(C2=C(c3c[nH]c4ccccc34)C(=O)NC2=O)c2ccccc21 [GF109203x]
- % inhibition of the EGF DMR response [1]: 22 ± 11%
- % inhibition of the carbachol DMR response ([2]; 100 μM carbachol, PTx overnight, GF109203x 5 μM, GW583340 10 μM, tyrphostin 1 μM, mean ± sd or average of two experiments): 67 ± 4%
- % inhibition of the sucralose DMR response ([3]; 2 mM sucralose, GF109203x 5 μM, GW583340 10 μM, tyrphostin 1 μM, mean ± sd or average of two experiments): −7 ± 10%
- % inhibition of the somatostatin DMR response ([4]; 10 μM somatostatin, PTx overnight, GF109203x 5 μM, GW583340 10 μM, tyrphostin 1 μM, mean ± sd or average of two experiments): 8%
- % inhibition of the S1P DMR response ([5]; 1 μM S1P): 15%

SMILES: CCn1c(-c2nonc2N)nc2cnc(Oc3cccc(NC(=O)c4ccc(OCCN5CCOCC5)cc4)c3)cc21 [GSK269962]
- effect on the EGF DMR response, in words [1]: not affected
- effect on the carbachol DMR response, in words ([2]; 100 μM carbachol): not affected
- % enhancement of the sucralose DMR response ([3]; 2 mM sucralose, GSK269962 2 μM, mean ± sd, n = 3): 28 ± 11%
- effect on the somatostatin DMR response, in words ([4]; 10 μM somatostatin): not affected
- % inhibition of the S1P DMR response ([5]; 1 μM S1P): 77 ± 14%

SMILES: CS(=O)(=O)CCNCc1nc(-c2ccc3ncnc(Nc4ccc(OCc5cccc(F)c5)c(Cl)c4)c3c2)cs1 [GW583340]
- effect on the EGF DMR response, in words [1]: abolished
- inhibition at 10 µM ([2]; Homo sapiens, U2OS, read-out: % inhibition of the carbachol DMR response): 7.6%
- inhibition at 10 µM ([3]; Homo sapiens, U2OS, read-out: % inhibition of the sucralose DMR response): 3.1%
- inhibition at 10 µM ([4]; Homo sapiens, U2OS, read-out: % inhibition of the somatostatin DMR response): -0.3%
- inhibition at 10 µM ([5]; Homo sapiens, U2OS, read-out: % inhibition of the S1P DMR response): -16%

SMILES: C/C1=C/C(=O)O[C@@H]2C[C@@H](CC[C@H](C)/C=C\C=C\CC1)O[C@@](O)([C@@H]1CSC(=O)N1)C2 [Latrunculin A]
- effect on the EGF DMR response, in words [1]: disrupted
- effect on the carbachol DMR response, in words ([2]; 100 μM carbachol): disrupted
- effect on the sucralose DMR response, in words ([3]; 2 mM sucralose): disrupted
- effect on the somatostatin DMR response, in words ([4]; 10 μM somatostatin): disrupted
- effect on the S1P DMR response, in words ([5]; 1 μM S1P, latrunculin A 1 μM): disrupted

SMILES: COC(=O)[C@H](Cc1ccccc1)NC(=O)[C@H](CC(=O)O)NC(=O)Nc1ccc(C#N)cc1 [Superaspartame]
- ΔlogR FLIPR Mean [6]: 1.17
- Activity in FLIPR assay Emax [6]: 105
- EC50 [6, 8]: 4.7 µM
- EC50 [6, 9]: 4.62 µM
- ΔΔlogR Mean ([6]; ΔlogR FLIPR-Gα15 minus ΔlogR DMR): 0.13
- EC50 [7, 10]: 9.8 µM
- EC50 [7, 11]: 9.48 µM
- ΔlogR DMR Mean [7]: 1.04
- Activity in DMR assay Emax [7]: 109

SMILES: N#CC(=C(/N)Sc1ccccc1N)/C(C#N)=C(/N)Sc1ccccc1N [U0126]
- % inhibition of the EGF DMR response [1]: 54 ± 15%
- effect on the carbachol DMR response, in words ([2]; 100 μM carbachol): no statistically significant effects
- effect on the sucralose DMR response, in words ([3]; 2 mM sucralose): no statistically significant effects
- effect on the somatostatin DMR response, in words ([4]; 10 μM somatostatin): no statistically significant effects
- % inhibition of the S1P DMR response ([5]; 1 μM S1P): 19 ± 26%

SMILES: CC1=CC(=O)NS(=O)(=O)O1 [acesulfame K]
- ΔlogR FLIPR Mean [6]: −0.74
- Activity in FLIPR assay Emax [6]: 73****
- EC50 [6, 8]: 253 µM
- EC50 [6, 9]: 251 µM
- Bias factor ([6]; inverse log of ΔΔlogR, FLIPR-Gα15 vs DMR): 1.8
- EC50 [7, 10]: 1220 µM
- EC50 [7, 11]: 906 µM
- ΔlogR DMR Mean [7]: −0.99
- Activity in DMR assay Emax [7]: 122
